IC50 and inhibition data for 25 compounds are collected here from US8846746B2, “Pyrazole compound and pharmaceutical use thereof” (Japan Tobacco Inc., priority 2011, dated 2014).

The target in one test is human SGLT1 (Homo sapiens (Human), UniProt P13866). In words: SGLT1 inhibitory activity: 14C-AMG uptake into CHO-K1 cell line stably expressing human SGLT1. The test is classed as cell-based. To be noted: 14C-AMG uptake, CHO-K1 cells stably expressing human SGLT1. The method in brief: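 Human SGLT1 was stably expressed in CHO-K1 cells. Cells were first held 20 min in sodium-free buffer, then exposed to compound in Na(+)/BSA buffer with tracer and AMG (2 mM in the added solution).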
Sequence of human SGLT1 (P13866 whole entry): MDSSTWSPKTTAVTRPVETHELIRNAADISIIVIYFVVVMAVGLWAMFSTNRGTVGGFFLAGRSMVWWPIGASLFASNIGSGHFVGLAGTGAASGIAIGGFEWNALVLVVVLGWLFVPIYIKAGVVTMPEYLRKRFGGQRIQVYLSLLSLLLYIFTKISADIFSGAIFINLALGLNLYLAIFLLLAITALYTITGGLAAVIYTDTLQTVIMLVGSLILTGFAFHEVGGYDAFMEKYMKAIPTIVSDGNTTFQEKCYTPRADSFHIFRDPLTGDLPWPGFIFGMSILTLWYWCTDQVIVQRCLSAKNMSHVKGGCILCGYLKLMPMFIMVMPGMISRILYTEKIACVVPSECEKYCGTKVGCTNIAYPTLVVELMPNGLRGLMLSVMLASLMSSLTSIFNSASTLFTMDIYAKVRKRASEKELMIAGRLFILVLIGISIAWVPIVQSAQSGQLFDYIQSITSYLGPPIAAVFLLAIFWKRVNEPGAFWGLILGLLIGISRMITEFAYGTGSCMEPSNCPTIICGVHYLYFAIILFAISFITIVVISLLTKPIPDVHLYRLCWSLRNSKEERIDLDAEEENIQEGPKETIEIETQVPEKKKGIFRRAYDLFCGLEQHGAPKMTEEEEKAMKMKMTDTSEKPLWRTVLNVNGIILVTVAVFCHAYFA
On to `COCc1cccc(-n2nc(NC(=O)[C@@H]3CNC(=O)C3)cc2-c2cccc(COCC(F)(F)F)c2)c1` [Example 489], for which the concentration for half-maximal inhibition (IC50) turned out to be 11 nM. Same read-out and setting: as for `CCCc1cccc(-c2cc(NC(=O)[C@@H]3CNC(=O)C3)nn2-c2cccc(OCCCSC)c2)c1` [Example 490], the figure is 7.6 nM; as for `CCCc1cccc(-c2cc(NC(=O)[C@@H]3CNC(=O)C3)nn2-c2cccc(OCC3(C)COC3)c2)c1` [Example 491], 6.5 nM; as for `CCCc1cccc(-c2cc(NC(=O)[C@@H]3CNC(=O)C3)nn2-c2cccc(OCCCS(C)(=O)=O)c2)c1` [Example 492], 19 nM. The same measure, in the same setting: with `CCCc1cccc(-c2cc(NC(=O)[C@@H]3CNC(=O)C3)nn2-c2cccc(C=C(C)C)c2)c1` [Example 493] the figure was 8.2 nM; with `C/C=C/c1cccc(-n2nc(NC(=O)[C@@H]3CNC(=O)C3)cc2-c2cccc(CCC)c2)c1` [Example 494], 9.1 nM; with `CCCc1cccc(-c2cc(NC(=O)[C@@H]3CNC(=O)C3)nn2-c2cccc(C#CC(C)(C)C)c2)c1` [Example 495], 22 nM. As for `CCCc1cccc(-c2cc(NC(=O)[C@@H]3CNC(=O)C3)nn2-c2cccc(CC(C)C)c2)c1` [Example 496], the IC50 worked out at 6.9 nM.

Turning to `CCCc1cccc(-c2cc(NC(=O)[C@@H]3CNC(=O)C3)nn2-c2cccc(CCC)c2)c1` [Example 497], the half-maximal inhibitory concentration (IC50) amounted to 3.3 nM.

`CCCc1cccc(-c2cc(NC(=O)[C@@H]3CNC(=O)C3)nn2-c2cccc(CCC(C)(C)C)c2)c1` [Example 498]: the IC50 was determined as 70 nM. `O=C1C[C@H](C(=O)Nc2cc(-c3cccc(CNCC(F)(F)F)c3)n(-c3ccccc3)n2)CN1` [Example 501]: half-maximal inhibition (IC50) was put at 69 nM. Same read-out and setting: with `O=C1C[C@H](C(=O)Nc2cc(-c3cccc(OC(F)(F)F)c3)n(-c3ccc(F)cc3)n2)CN1` [Example 502] the figure was 81 nM; with `O=C1C[C@H](C(=O)Nc2cc(-c3cccc(OC(F)(F)F)c3)n(-c3cccc(Cl)c3)n2)CN1` [Example 504], 23 nM. Regarding `O=C1C[C@H](C(=O)Nc2cc(-c3cccc(COCC(F)(F)F)c3)n(-c3cccc(Cl)c3)n2)CN1` [Example 505], the IC50 amounted to 11 nM. Against the preceding compound, the IC50 is about 2.1-fold lower. The same measure, in the same setting: as for `C[C@@H](OCc1cccc(-c2cc(NC(=O)[C@@H]3CNC(=O)C3)nn2-c2cccc(Cl)c2)c1)C(F)(F)F` [Example 506], the figure is 4.7 nM; as for `O=C1C[C@H](C(=O)Nc2cc(-c3cccc(COCC(F)(F)F)c3)n(-c3ccc(Cl)cc3)n2)CN1` [Example 508], 20 nM; as for `O=C1C[C@H](C(=O)Nc2cc(-c3cccc(COCC(F)(F)F)c3)n(-c3cccc(OC4COC4)c3)n2)CN1` [Example 509], 38 nM.

On to `O=C1C[C@H](C(=O)Nc2cc(-c3cc(F)cc(COCC(F)(F)F)c3)n(-c3ccccc3Cl)n2)CN1` [Example 510], for which the IC50 was 8.3 nM. Same read-out and setting: with `O=C1C[C@H](C(=O)Nc2cc(-c3cc(F)cc(COCC(F)(F)F)c3)n(-c3cccc(Cl)c3)n2)CN1` [Example 511] the figure was 7.9 nM.

With `O=C1C[C@H](C(=O)Nc2cc(-c3cc(F)cc(COCC(F)(F)F)c3)n(-c3ccc(Cl)cc3)n2)CN1` [Example 512], the half-maximal inhibitory concentration (IC50) is 16 nM. Same read-out and setting: with `C[C@@H](OCc1cc(F)cc(-c2cc(NC(=O)[C@@H]3CNC(=O)C3)nn2-c2ccccc2Cl)c1)C(F)(F)F` [Example 513] the figure was 3.2 nM.

Still in this test, the particulars now being: CHO-K1, at 0.1 uM.
Consider `CC(C)(C)C#Cc1cccc(-c2cc(NC(=O)[C@@H]3CNC(=O)C3)nn2-c2ccccc2)c1` [Example 499], for which the inhibition at 0.1 µM came to 4%. The same measure, in the same setting: with `CCCc1cccc(-c2cc(NC(=O)[C@@H]3CNC(=O)CN3)nn2-c2ccccc2)c1` [Example 500] the figure was 19%; with `O=C1C[C@H](C(=O)Nc2cc(-c3cccc(COCC(F)(F)F)c3)n(-c3cc(Cl)ccc3F)n2)CN1` [Example 503], -17%; with `O=C1C[C@H](C(=O)Nc2cc(-c3cccc(OC(F)(F)F)c3)n(-c3ccc(Cl)cc3)n2)CN1` [Example 507], 50%.
